Laboratory results: patent publication US7956041B2, “Prophylactic and therapeutic agent of diabetes mellitus” (Ajinomoto Co., Inc., priority 2002, dated 2011)

Experiments:
Male Wistar rats = assay: Test Example 2A: excretion action of urine sugar in rat; assay type: in vivo; conditions: urine collected 24 hours
Description: Male Wistar rats aged 5 weeks (purchased from Charles River Japan, Inc.) were acclimatized in metabolic cages for one week, for use at this experiment. The test compounds suspended in olive oil were dosed at 5 ml per 1 kg rat body weight.
After the rats were starved for 4 hours, the test compounds were orally given to the rats at 11 am. Immediately after dosing until 24 hours later, urine was collected. The volume of urine was measured. Then, urine sugar concentration was assayed by glucose oxidase method, to calculate the glucose excretion into urine per individual per day.

[1] = system: glucose-loaded rats (Wistar rats); assay: Example I: blood glucose time course after oral glucose loading in rats; assay type: in vivo, rat; conditions: glucose 1 g/kg p.o., FIG. 2
Description: Wistar rats (age of 7 weeks; male) were divided into groups with matched body weights. After 17-hour starvation, glucose was orally given at 1 g/kg to the animals. Immediately after the administration, the inhibitor A of renal glucose reabsorption or the inhibitor B of renal glucose reabsorption (A at 30 mg/kg or 60 mg/kg; B at 30 mg/kg or 80 mg/kg) or glibenclamide (1 mg/kg or 2 mg/kg) or nateglinide (50 mg/kg or 80 mg/kg) was orally given. Additionally, a group on the combined use of both of an inhibitor of renal glucose reabsorption and a hypoglycemic agent was also prepared. A vehicle was orally given to a control group after glucose administration.
Blood glucose was measured in a time course.

[2] = nateglinide 50 mg/kg and/or inhibitor B 30 mg/kg p.o., vs vehicle

| SMILES | Excreted urine sugar (Male Wistar rats; Dose 100 mg/kg p.o.) [mg] | also measured |
| --- | --- | --- |
| Cc1[nH]nc(O[C@@H]2O[C@H](CO)[C@@H](O)[C@H](O)[C@H]2O)c1Cc1ccc(OC(C)C)cc1 [Reference Production Example 1, 4-[(4-isopropoxyphenyl)methyl]-5-methyl-1H-pyrazole-3-o-β-D-glucopyranoside, reference compound] | 14 |  |
| COC(=O)OC[C@H]1O[C@@H](Oc2nn(C(C)C)c(C)c2Cc2ccc(OC)c(F)c2)[C@H](O)[C@@H](O)[C@@H]1O [Production Example 10-A, 4′-[(3′-fluoro-4′-methoxyphenyl)methyl]-1′-isopropyl-5′-methyl-1H-pyrazole-3′-o-(6-carbomethoxy)-β-D-glucopyranoside] | 734 |  |
| CCc1ccc(Cc2c(O[C@@H]3O[C@H](COC(=O)OC)[C@@H](O)[C@H](O)[C@H]3O)nn(Cc3ccccc3)c2C(F)(F)F)cc1 [Production Example 4-A, 4′-[(4′-ethylphenyl)methyl]-1′-benzyl-5′-trifluoromethyl-1H-pyrazole-3′-o-(6-carbomethoxy)-β-D-glucopyranoside] | 27 |  |
| CCc1ccc(Cc2c(O[C@@H]3O[C@H](COC(=O)OC)[C@@H](O)[C@H](O)[C@H]3O)nn(Cc3ccc(OC)cc3)c2C(F)(F)F)cc1 [Production Example 6-A, 4′-[(4′-ethylphenyl)methyl]-1′-[(4′-methoxyphenyl)methyl]-5′-trifluoromethyl-1H-pyrazole-3′-o-(6-carbomethoxy)-β-D-glucopyranoside] | 59 |  |
| CCc1ccc(Cc2c(O[C@@H]3O[C@H](COC(=O)OC)[C@@H](O)[C@H](O)[C@H]3O)nn(-c3ccccc3)c2C(F)(F)F)cc1 [Production Example 8-A, 4′-[(4′-ethylphenyl)methyl]-1′-phenyl-5′-trifluoromethyl-1H-pyrazole-3′-o-(6-carbomethoxy)-β-D-glucopyranoside] | 4.1 |  |
| CCc1ccc(Cc2c(O[C@@H]3O[C@H](COC(=O)OC)[C@@H](O)[C@H](O)[C@H]3O)nn(C(C)C)c2C)cc1 [Production Example 16-A, 4′-[(4-ethylphenyl)methyl]-1′-isopropyl-5′-methyl-1H-pyrazole-3′-o-(6-carbomethoxy)-β-D-glucopyranoside] | 598 | Excreted urine sugar (Male Wistar rats; Dose 3 mg/kg p.o.): 28 mg; Excreted urine sugar (Male Wistar rats; Dose 10 mg/kg p.o.): 263 mg; Excreted urine sugar (Male Wistar rats; Dose 30 mg/kg p.o.): 294 mg |
| CC(C)[C@H]1CC[C@H](C(=O)N[C@H](Cc2ccccc2)C(=O)O)CC1 [nateglinide] |  | Blood glucose 30 minutes after glucose loading [1, 2]: more highly suppressed hyperglycemia immediately after glucose loading (30 minutes and 60 minutes); Blood glucose 60 minutes after glucose loading [1, 2]: more highly suppressed hyperglycemia immediately after glucose loading (30 minutes and 60 minutes); Blood glucose 120 minutes after glucose loading and thereafter ([1]; nateglinide 50 mg/kg p.o., vs vehicle): did not lower the blood glucose level 120 minutes after glucose loading and thereafter; Pattern of glycemic suppression at increased dose ([1]; nateglinide 80 mg/kg, inhibitor B 80 mg/kg): the pattern of glycemic suppression did not change even by the elevation of the dose |
| COC(=O)OC[C@H]1O[C@@H](Oc2nn(C(C)C)c(C)c2Cc2ccc(C)c(F)c2)[C@H](O)[C@@H](O)[C@@H]1O [Production Example 14-A, 4′-[(3′-fluoro-4′-methylphenyl)methyl]-1′-isopropyl-5′-methyl-1H-pyrazole-3′-o-(6-carbomethoxy)-β-D-glucopyranoside] | 918 |  |
